Measurements: PubChem BioAssay (NCI)
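The concentration for 50% growth inhibition is given as GI50. The concentration for full growth arrest is given as TGI.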

Experiments:
Assay in all cases: growth of human tumour cells (NCI), 384-well format
MDA-MB-468 breast = test system: MDA-MB-468 breast
MDA-MB-231 breast = test system: MDA-MB-231 breast
NCI-H460 NSCLC = test system: NCI-H460 NSCLC
HT29 colon = test system: HT29 colon
SF-539 CNS = test system: SF-539 CNS
NCI/ADR-RES ovarian = test system: NCI/ADR-RES ovarian
IGROV1 ovarian = test system: IGROV1 ovarian
SK-MEL-28 melanoma = test system: SK-MEL-28 melanoma
TK-10 renal = test system: TK-10 renal
A498 renal = test system: A498 renal
NCI-H226 lung = test system: NCI-H226 lung
HCT-15 colon = test system: HCT-15 colon
MALME-3M melanoma = test system: MALME-3M melanoma

With Nc1ncn(C2OC(CO)C(O)C2O)c(=O)n1 (stereo unspecified) the GI50 (MDA-MB-468 breast) was 0.529 µM, the TGI (MDA-MB-468 breast) was 1.41 µM and the GI50 (MDA-MB-231 breast) was 1.55 µM. For the same compound, the TGI (MDA-MB-231 breast) was 17.4 µM, the GI50 (NCI-H460 NSCLC) was 0.239 µM and the TGI (NCI-H460 NSCLC) was 1.27 µM. The GI50 (HT29 colon) was 3.52 µM, the TGI (HT29 colon) was 30.1 µM and the GI50 (SF-539 CNS) was 2.07 µM. The TGI (SF-539 CNS) was 6.09 µM, the GI50 (NCI/ADR-RES ovarian) was 4.25 µM and the TGI (NCI/ADR-RES ovarian) was over 35.6 µM. For the same compound, the GI50 (IGROV1 ovarian) was 2.61 µM, the TGI (IGROV1 ovarian) was 10.3 µM and the GI50 (SK-MEL-28 melanoma) was 3.33 µM. For the same compound, the TGI (SK-MEL-28 melanoma) was 18 µM, the GI50 (TK-10 renal) was 2.3 µM and the TGI (TK-10 renal) was 30.5 µM. The GI50 (A498 renal) was 2.5 µM, the TGI (A498 renal) was 11.9 µM and the GI50 (NCI-H226 lung) was 4.46 µM. It also gave a TGI (NCI-H226 lung) of 27.8 µM, a GI50 (HCT-15 colon) of 2.11 µM and a TGI (HCT-15 colon) of 8.05 µM. It also gave a GI50 (MALME-3M melanoma) of 3.3 µM and a TGI (MALME-3M melanoma) of 16.7 µM.
